Where two headings read alike, the source gives them in different places. No end group written: not given here.
Biological target: T1, GPR103 Y194^ECL2A (Homo sapiens, UniProt Q96P65, Y194A)
T1 construct: we used human full-length QRFPR-encoding plasmids; expressed in transfected cells; host or cells: HEK293 cells, pCAGGS vector
T1 sequence (Q96P65 1-431 Y194A): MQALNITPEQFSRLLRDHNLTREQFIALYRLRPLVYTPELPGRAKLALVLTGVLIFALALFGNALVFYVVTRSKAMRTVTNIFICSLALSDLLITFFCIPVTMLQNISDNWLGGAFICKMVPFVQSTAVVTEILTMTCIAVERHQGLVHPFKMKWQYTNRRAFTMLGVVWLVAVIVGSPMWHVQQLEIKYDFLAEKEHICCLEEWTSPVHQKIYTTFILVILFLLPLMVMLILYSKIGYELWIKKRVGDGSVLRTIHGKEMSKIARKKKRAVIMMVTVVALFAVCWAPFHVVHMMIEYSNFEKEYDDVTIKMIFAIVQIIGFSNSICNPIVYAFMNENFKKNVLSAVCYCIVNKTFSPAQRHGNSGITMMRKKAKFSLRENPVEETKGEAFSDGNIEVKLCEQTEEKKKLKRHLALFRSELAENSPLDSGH
Assay: TGFα shedding assay; Exp. level WT (1:10)
Format: cell-based
Experimental: For the TGFα shedding assay and the flow cytometry analysis, we used human full-length QRFPR-encoding plasmids. Specifically, GPR103 was N-terminally modified with an HA signal sequence followed by a FLAG epitope and then a flexible linker ([…]; the FLAG epitope is underlined) and inserted into the pCAGGS vector. Plasmid encoding GPR103 mutants were generated using Quickchange Site-Directed Mutagensis kit (Agilent).
The TGFα shedding assay was performed as described previously with minor modifications. Plasmid transfection was performed in a 6-well plate with a mixture of 500 ng (per well in a 6-well plate) AP-TGFα-encoding plasmid and 200 ng GPR103-encoding plasmid. After 1-day culture, the transfected cells were harvested by trypsinization, pelleted by centrifugation at 190 × g for 5 min, and washed once with 5 mM HEPES (pH 7.4)-containing Hank’s Balanced Salt Solution (HBSS). After centrifugation, the cells were resuspended in 8 mL of the HEPES-containing HBSS. The cell suspension was seeded in a 96-well culture plate (cell plate) at a volume of 90 μL (per well hereafter) and incubated in a 37 °C incubator with 5% CO2 for 30 min. […] After spinning the cell plates at 190 × g for 2 min, 80 μL of conditioned media was transferred to an empty 96-well plate (conditioned media (CM) plate). Then, 80 μL of AP reaction solution (10 mM p-nitrophenylphosphate (p-NPP), 120 mM Tris-HCl (pH 9.5), 40 mM NaCl, and 10 mM MgCl2) was dispensed into the cell plates and the CM plates. Absorbance at 405 nm of the plates was measured using a microplate reader (SpectraMax 340 PC384, Molecular Devices) before and after 1-h incubation at room temperature. Ligand-induced AP-TGFα release was calculated by subtracting spontaneous AP-TGFα release signal from ligand-induced AP-TGFα release signal. The AP-TGFα release signals were fitted to a four-parameter sigmoidal concentration–response curve, using the Prism 10 software (GraphPad Prism). For each replicate experiment, the pEC50 parameter (negative logarithmic values of EC50 values) of the individual GPR103 mutants were normalized to that of the wild-type GPR103 performed in parallel, and resulting ∆pEC50 values were used to denote ligand response activity of the mutants. […]
Exp. le vel: WT (1:5 0)Exp. le vel: WT (1:5 0)Exp. le vel: WT (1:5 0)Exp. le vel: WT (1:2 0)Exp. le vel: WT (1:2 0)Exp. le vel: WT (1:1 0) […]
L1 4N - t e r mA F2 5N - t e r mA I 2 6N - t e r mA Y 2 9N - t e r mA C 9 82 .5 7A T10 22 .6 1A Exp . l eve l: WT (1 :5)Exp . l evel : >WT (1 :1)Exp. le vel: WT (1:2 0)Exp. le vel: WT (1:2 0)Exp. le vel: WT (1:5 0)Exp . l eve l: WT (1 :1) […]
Exp. le vel: WT (1:1 0)Exp. le vel: WT (1:2 0) C 1 1 83 .2 5AExp. le vel: WT (1:5 0)Exp. le vel: WT (1:5 0)Exp. le vel: WT (1:2 0)Exp . l eve l: WT (1 :5) […]
Exp. le vel: WT (1:5 0)Exp. le vel: WT (1:1 0)Exp. le vel: WT (1:5 0) E203ECL2AExp . l evel : >WT (1 :1)Exp. le vel: WT (1:5 0)Exp. le vel: WT (1:5 0) […]
Exp . l eve l: WT (1 :1) F28Exp. le vel: WT (1:5 0) C 2 8 56 .4 7AExp. le vel: WT (1:2 0) WExp. le vel: WT (1:2 0) F28Exp. le vel: WT (1:5 0)Exp . l evel : >WT (1 :1) […]
Exp. le vel: WT (1:5 0)Exp. le vel: WT (1:5 0) C 3 2 77 .4 8AExp . l eve l: WT (1 :5)Exp . l evel : >WT (1 :1)Exp . l evel : >WT (1 :1) […]
Suppl eme nt ary Figure 1 | Mutational analysis of GPR103. […]
mutants. Data are presented as mean values ± SEM, normally n=3-5; dots), each performed in triplicate. b-d Cell-surface expression (b) and QRFP26-in-duced activation of GPR103 (c, d) were analyzed by the flow cytometry and the TGFα shedding assay, respectively. From the concentration–response curves (a), Emax (c) and ΔpEC50 (d) values relative to the wild type were calculated. Colors in the mutant bars indicate an expression level matching to that of titrated wild type. Statistical analyses were performed using the ordinary one-way ANOVA followed by Dunnett tests with the expression-matched […]

TSGPLGNLAEELNGYSRKKGGFSFRF-NH2 [QRFP26]
Emax (Exp. #1): 91.33 % WT
Emax (Exp. #2): 94.38 % WT
Emax (Exp. #3): 115.19 % WT
Emax (mean, read-out: Emax): 100%
EC50 (n = 3): 93.3 nM
Emax (n = 3, read-out: Emax): 102 ± 6.1%

Reference: paper PMC11187126, “Structure and dynamics of the pyroglutamylated RF-amide peptide QRFP receptor GPR103” (Nature Communications, 2024)
